pIC50: −log10 of the molar value. Like-named read-outs stand apart in the source and are kept apart here.
What was measured:
HEK 293 cell line = assay: In vitro cytotoxicity, WST-1; assay type: cell-based; details: Homo sapiens, HEK293, 10% FBS, read-out: IC50, single agent
Experimental: Cells were maintained in Dulbecco’s modified Eagle’s medium (DMEM) with 10% fetal bovine serum (FBS) and 1% PenStrep (100 U/mL Penicillin and 100 μg/mL Streptomycin) at 37°C with 5% CO2. Cells were serially passaged at ∼80% confluence ∼ every 4 days. Assays were performed in duplicate in 96 well plates seeded with ∼25,000 cells per well. […] Briefly, the antimicrobials were prepared by performing a twofold serial dilution at 100× of tested concentration in DMSO. Subsequently, a 1 μl aliquot of each concentration was transferred to a sterile 96-well plate containing fresh DMEM with either 10% FBS. After mixing four times, the media aliquots with different concentrations of antimicrobial were transferred to each well of the 96-well plate seeded with cells, using wells containing 1–2% DMSO only as control. To determine the effect of FBS on the cytotoxicity of each compound, DMEM with 40% FBS containing different concentrations of antimicrobial was prepared as described above. After 24 h of exposure, WST-1 reagent (Cell Proliferation Assay reagent, Roche) at a concentration of 10% was added to each well. Absorbance at A450 nm on a Multiskan Ascent 354 Spectrophotometer (Labsystems) was measured after 1 h of incubation. The IC50 value was determined for each compound against each cell line via non-linear regression (three parameters) using GraphPad Prism v6 software.

[1] = tested on: P. aeruginosa (n = 30) clinical isolates from otitis externa cases in dogs; assay: MIC/MBC and checkerboard, canine otitis externa isolates; assay type: cell-based, Pseudomonas aeruginosa; details: for MIC50 / MIC90: Pseudomonas aeruginosa; for MIC50, in combination of EDTA and ROB / MIC90, in combination of EDTA and ROB / MIC range, in combination of EDTA and ROB: concentration of the labelled component
Text: (§1) Escherichia coli ATCC 25922, E. coli ATCC 11229, P. aeruginosa ATCC 27853, P. aeruginosa PA01, Pseudomonas putida ATCC 17428, P. mirabilis ATCC 43071, K. pneumoniae ATCC 13883, A. baumannii ATCC 19606, and A. baumannii ATCC 12457 were used for preliminary susceptibility testing and combination experiments. S. aureus ATCC 29213 and S. pneumoniae ATCC 49619 were used as internal quality controls. A variety of bacterial organisms from both human and canine infections were investigated in this study (n = 119 isolates in total). Twenty-eight clinical Acinetobacter spp. isolates were obtained from cases of human skin and soft tissue infections, including 18 Acinetobacter baumannii and 10 A. calcoaceticus, kindly provided by a person (Institute of Medical and Veterinary Science, South Australia). […] Ninety-one clinical isolates were obtained from cases of canine otitis externa, including seven methicillin-susceptible S. pseudintermedius (MSSP), 13 multidrug- and methicillin-resistant S. pseudintermedius (MRSP) ([Saputra et al., 2017]), 20 beta-haemolytic Streptococcus spp., 30 P. aeruginosa (10 of them resistant to gentamicin and 21 P. mirabilis isolates). These isolates were obtained from the bacterial collection of the national survey of antimicrobial resistance in animals conducted in Australia. Swab samples from dogs with signs of otitis externa were collected by veterinarians and submitted to government, private or university diagnostic laboratories throughout Australia. After routine bacterial identification and the removal of confidential information, the participating veterinary diagnostic laboratories submitted the bacteria and their clinical information to PC2 Laboratories, Australian Centre for Antimicrobial Resistance Ecology, School of Animal and Veterinary Sciences, University of Adelaide, Roseworthy Campus, Roseworthy, SA, Australia, for further study. Thus, animal ethics approval was not required in this study. These organisms were identified to species level using biochemical testing and MALDI-TOF mass spectrometry (Bruker, Preston, VIC, Australia).
(§2) The MIC for ampicillin or gentamicin against each isolate was determined for each test to serve as an internal quality control. The MICs of isolates were determined by visual reading and using an EnSpire Multimode Plate Reader 2300 atA600nm.
(§3) Briefly, 10 μl aliquots from each duplicate well from the MIC assays (starting from the MIC for each compound) were inoculated onto a sheep blood agar (SBA) plate and incubated at 37°C.
(§4) Briefly, antimicrobial stock solutions for robenidine and PMBN were prepared at a concentration of 12.8 mg/ml in DMSO. […] A 1 μl aliquot of the first compound from each combination was dispensed along the abscissa (from row A to G) of the 96-well microplate, while the second compound was dispensed along the ordinate (from column 12 to column 3) using an electronic multichannel pipette followed by 89 μl of LB broth. Each well of the plate was inoculated with an aliquot of 10 μl bacterial suspension at a concentration of 1-5 × 10^6 colony forming units (CFU) per ml. Subsequently, the plate was incubated at 37°C for 24 h. The fractional inhibitory concentration index (FICI) described the results of the combinations, and was calculated utilizing the following formula:
(§5) DRI = MIC of drug alone/MIC of drug in combination

[2] = tested on: Beta-haemolytic streptococci (n = 20) clinical isolates from otitis externa cases in dogs; assay: as above; assay type: cell-based, beta-haemolytic Streptococcus spp.; details: for MIC50 / MIC90: Streptococcus; for MIC50, in combination of EDTA and ROB / MIC90, in combination of EDTA and ROB / MIC range, in combination of EDTA and ROB: concentration of the labelled component
Text: as §1, §2, §3, §4, §5

S. pneumoniae strains = tested on: S. pneumoniae strains; design: method as in Abraham et al., 2016; Ogunniyi et al., 2017; details: ref Abraham et al., 2016, Ogunniyi et al., 2017; cited from earlier work
clinical MRSA = tested on: clinical MRSA; design: method as in Abraham et al., 2016; Ogunniyi et al., 2017; details: ref Abraham et al., 2016, Ogunniyi et al., 2017; cited from earlier work
[3] = tested on: tested pathogens (canine otitis externa isolates); assay: MIC, summary over canine otitis externa pathogens; assay type: cell-based
Experimental: Luria Bertani (LB) broth (Oxoid, Australia) was applied for MIC testing in lieu of cation-adjusted Mueller-Hinton broth as robenidine has been previously shown to chelate calcium ions. Furthermore, a twofold serial dilution of robenidine was performed in 100% DMSO, with 1 μl dispensed to each well due to the hydrophobicity of the compound ([Abraham et al., 2016]). The MIC for ampicillin or gentamicin against each isolate was determined for each test to serve as an internal quality control. The MICs of isolates were determined by visual reading and using an EnSpire Multimode Plate Reader 2300 atA600nm. […] Each well of the plate was inoculated with an aliquot of 10 μl bacterial suspension at a concentration of 1-5 × 10^6 colony forming units (CFU) per ml. Subsequently, the plate was incubated at 37°C for 24 h. The fractional inhibitory concentration index (FICI) described the results of the combinations, and was calculated utilizing the following formula: […]

[4] = canine otitis externa, read-out: MIC50, single drug
[5] = canine otitis externa, read-out: MIC90, single drug
[6] = read-out: MIC50, single drug (mM in parentheses)
[7] = read-out: MIC90, single drug (mM in parentheses)

O=C(O)CN(CCN(CC(=O)O)CC(=O)O)CC(=O)O [EDTA, ethylenediaminetetraacetic acid]
pIC50 (HEK 293 cell line): 2.47
MBC/MIC row, EDTA in combination [1]: 750 µg/mL
MBC/MIC row, EDTA in combination (mM in parentheses) [1]: 2 mM
MIC range, single drug (mM in parentheses) [1]: 2 to 12 mM
MIC50, in combination of EDTA and ROB (mM in parentheses) ([1]; EDTA component): 4 mM
MIC90, in combination of EDTA and ROB (mM in parentheses) ([1]; EDTA component): 4 mM
MIC range, in combination of EDTA and ROB (mM in parentheses) ([1]; EDTA component): 1 to 4 mM
MIC50 [1, 4]: 3000 µg/mL
MIC90 [1, 5]: 3000 µg/mL
MIC50 [1, 6]: 8 mM
MIC90 [1, 7]: 8 mM
MIC range, single drug ([1]; canine otitis externa): 750 to 4500 µg/mL
MIC50, in combination of EDTA and ROB [1]: 1500 µg/mL
MIC90, in combination of EDTA and ROB [1]: 1500 µg/mL
MIC range, in combination of EDTA and ROB [1]: 380 to 1500 µg/mL
MBC/MIC row, EDTA in combination [2]: 750 µg/mL
MBC/MIC row, EDTA in combination (mM in parentheses) [2]: 2 mM
MIC range, single drug (mM in parentheses) [2]: 0.5 to 2 mM
MIC50, in combination of EDTA and ROB (mM in parentheses) ([2]; EDTA component): 0.5 mM
MIC90, in combination of EDTA and ROB (mM in parentheses) ([2]; EDTA component): 1 mM
MIC range, in combination of EDTA and ROB (mM in parentheses) ([2]; EDTA component): 0.25 to 1 mM
MIC50 [2, 4]: 380 µg/mL
MIC90 [2, 5]: 750 µg/mL
MIC50 [2, 6]: 1 mM
MIC90 [2, 7]: 2 mM
MIC range, single drug ([2]; canine otitis externa): 190 to 750 µg/mL
MIC50, in combination of EDTA and ROB [2]: 190 µg/mL
MIC90, in combination of EDTA and ROB [2]: 380 µg/mL
MIC range, in combination of EDTA and ROB [2]: 95 to 380 µg/mL

N=C(N/N=C/c1ccc(Cl)cc1)N/N=C/c1ccc(Cl)cc1 [ROB, robenidine]
effective concentrations (MIC range) (S. pneumoniae strains): 2 to 8 µg/mL
MBC/MIC, ROB in combination with EDTA [1]: ≥2
MIC50 [1, 4]: > 256 µg/mL
MIC90 [1, 5]: > 256 µg/mL
MIC range, single drug ([1]; canine otitis externa): >256 µg/mL
MIC50, in combination of EDTA and ROB [1]: 0.25 µg/mL
MIC90, in combination of EDTA and ROB [1]: 2 µg/mL
MIC range, in combination of EDTA and ROB [1]: 0.125 to 4 µg/mL
effective concentrations (MIC range) (clinical MRSA): 1 to 2 µg/mL
MBC/MIC, ROB in combination with EDTA [2]: 2
MIC50 [2, 4]: 8 µg/mL
MIC90 [2, 5]: 8 µg/mL
MIC range, single drug ([2]; canine otitis externa): 4 to 16 µg/mL
MIC50, in combination of EDTA and ROB [2]: 2 µg/mL
MIC90, in combination of EDTA and ROB [2]: 4 µg/mL
MIC range, in combination of EDTA and ROB [2]: 1 to 8 µg/mL
MBC/MIC, single drug ([2]; footnote for BS not shown): 1.75
MIC values ([3]; Gram-positive bacteria: S. pseudintermedius and beta-haemolytic streptococci): 1 to 16 µg/mL
MIC90 of robenidine ([3]; in the presence of EDTA, tested pathogens): 0.5 to 4 µg/mL
